# In patent US20260285850A1, “SUBSTITUTED OXAZOLIDINONES AND IMIDAZOLINONES AS HERBICIDES” (FMC CORPORATION, priority 2023, published 2026):
# Columns and labels:
# Format in all cases: in vivo
# [1] = tested on: blackgrass (Alopecurus myosuroides); test: Test A postemergence application, visual injury rating 0-100
# How it was run: (§1)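 Scale 0–100 (no effect to complete control), visual, versus untreated controls, read 10 days after application. Application: preemergence directed spray onto seeded loam–sand soil, or postemergence to young plants; formulation in non-phytotoxic solvent with surfactant.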
# [2] = tested on: palmer (palmer amaranth, palmer pigweed, Amaranthus palmeri); test: as above
# How it was run: as §1
# corn (Zea mays) [3] = test: as above
# How it was run: as §1
# soybean (Glycine max) [4] = test: as above
# How it was run: as §1
# [5] = tested on: horseweed (Erigeron canadensis); test: as above
# How it was run: as §1
# kochia (Bassia scoparia) [6] = test: as above
# How it was run: as §1
# [7] = tested on: green foxtail (Setaria viridis); test: as above
# How it was run: as §1
# [8] = tested on: galium (catchweed bedstraw, Galium aparine); test: as above; settings: Postemergence, 16 g ai/ha, greenhouse 10 days; 0 no effect, 100 complete control
# How it was run: as §1
# [9] = tested on: barnyardgrass (Echinochloa crus-galli); test: as above
# How it was run: as §1
# [10] = tested on: wheat (Triticum aestivum); test: as above
# How it was run: as §1
# [11] = tested on: oat, wild (wild oat, Avena fatua); test: as above
# How it was run: as §1
# [12] = tested on: ryegrass, Italian (italian ryegrass, Lolium multiflorum); test: as above
# How it was run: as §1
# [13] = tested on: ragweed (common ragweed, Ambrosia artemisiifolia); test: as above
# How it was run: as §1
# [14] = tested on: sedge, umbrella (small-flower umbrella sedge, Cyperus difformis); test: Test B flooded paddy test, visual plant response rating 0-100; settings: 250 g ai/ha, Flood, applied to paddy water, evaluated after 13 days
# How it was run: (§2)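 2-leaf plants; flood 3 cm over soil; compound dosed into paddy water; depth kept constant; greenhouse 13 d; visual scoring vs controls. Dash = no result.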
# [15] = tested on: barnyardgrass (Echinochloa crusgalli); test: as above; settings: 250 g ai/ha, Flood, applied to paddy water, evaluated after 13 days
# How it was run: as §2
# rice (Oryza sativa) = test: as above; settings: 250 g ai/ha, Flood, applied to paddy water, evaluated after 13 days
# How it was run: as §2
# [16] = tested on: ducksalad (Heteranthera limosa); test: as above; settings: 250 g ai/ha, Flood, applied to paddy water, evaluated after 13 days
# How it was run: as §2
# [17] = tested on: blackgrass (Alopecurus myosuroides); test: Test A preemergence soil spray, visual injury rating 0-100; settings: 10 days
# How it was run: as §1
# [18] = tested on: palmer (palmer amaranth, palmer pigweed, Amaranthus palmeri); test: as above; settings: 10 days
# How it was run: as §1
# corn (Zea mays) [19] = test: as above; settings: 10 days
# How it was run: as §1
# soybean (Glycine max) [20] = test: as above; settings: 10 days
# How it was run: as §1
# kochia (Bassia scoparia) [21] = test: as above; settings: 10 days
# How it was run: as §1
# [22] = tested on: green foxtail (Setaria viridis); test: as above; settings: 10 days
# How it was run: as §1
# [23] = tested on: barnyardgrass (Echinochloa crus-galli); test: as above; settings: 10 days
# How it was run: as §1
# [24] = tested on: wheat (Triticum aestivum); test: as above; settings: 10 days
# How it was run: as §1
# [25] = tested on: oat, wild (wild oat, Avena fatua); test: as above; settings: 10 days
# How it was run: as §1
# [26] = tested on: ryegrass, Italian (italian ryegrass, Lolium multiflorum); test: as above; settings: 10 days
# How it was run: as §1
# [27] = tested on: ragweed (common ragweed, Ambrosia artemisiifolia); test: as above; settings: 10 days
# How it was run: as §1
# [28] = 62 g ai/ha, postemergence, 10 days, 0 = no effect, 100 = complete control
# [29] = Postemergence, 16 g ai/ha, greenhouse 10 days, 0 no effect, 100 complete control
# [30] = 62 g ai/ha, 0 = no effect, 100 = complete control
smiles,measurement,setting,value
CC1(C(=O)NC2CC=C(C(=O)OCC(F)F)C2)CN(c2cc(Cl)cc(Cl)c2)C(=O)O1 (stereo not drawn) [Compound 153],Blackgrass plant response rating (0-100),[1]; [28],90
same,Blackgrass plant response rating (0 to 100 scale),[1]; [29],80
same,"Pigweed, Palmer plant response rating (0-100)",[2]; [28],0
same,"Pigweed, Palmer plant response rating (0 to 100 scale)",[2]; [29],0
same,Corn plant response rating (0-100),corn (Zea mays) [3]; [28],0
same,Corn plant response rating (0 to 100 scale),corn (Zea mays) [3]; [29],0
same,Soybean plant response rating (0-100),soybean (Glycine max) [4]; [28],0
same,Soybean plant response rating (0 to 100 scale),soybean (Glycine max) [4]; [29],0
same,Horseweed plant response rating (0-100),[5]; [28],0
same,Horseweed plant response rating (0 to 100 scale),[5]; [29],20
same,Kochia plant response rating (0-100),kochia (Bassia scoparia) [6]; [28],0
same,Kochia plant response rating (0 to 100 scale),kochia (Bassia scoparia) [6]; [29],0
same,"Foxtail, Green plant response rating (0-100)",[7]; [28],0
same,"Foxtail, Green plant response rating (0 to 100 scale)",[7]; [29],0
same,Galium plant response rating (0 to 100 scale),[8],0
same,Barnyardgrass plant response rating (0-100),[9]; [28],0
same,Barnyardgrass plant response rating (0 to 100 scale),[9]; [29],0
same,Wheat plant response rating (0-100),[10]; [28],0
same,Wheat plant response rating (0 to 100 scale),[10]; [29],0
same,"Oat, Wild plant response rating (0-100)",[11]; [28],0
same,"Oat, Wild plant response rating (0 to 100 scale)",[11]; [29],0
same,"Ryegrass, Italian plant response rating (0-100)",[12]; [28],0
same,"Ryegrass, Italian plant response rating (0 to 100 scale)",[12]; [29],0
same,Ragweed plant response rating (0-100),[13]; [28],0
same,Ragweed plant response rating (0 to 100 scale),[13]; [29],0
same,"Plant response rating, Sedge, Umbrella (0 to 100 scale, 0 is no effect and 100 is complete control)",[14],0
same,"Plant response rating, Barnyardgrass (0 to 100 scale, 0 is no effect and 100 is complete control)",[15],0
same,"Plant response rating, Rice (0 to 100 scale, 0 is no effect and 100 is complete control)",rice (Oryza sativa),0
same,"Plant response rating, Ducksalad (0 to 100 scale, 0 is no effect and 100 is complete control)",[16],0
same,Blackgrass plant response rating,"[17]; 16 g ai/ha, 0 to 100 scale",0
same,Blackgrass plant response rating (0-100),[17]; [30],0
same,"Pigweed, Palmer plant response rating","[18]; 16 g ai/ha, 0 to 100 scale",0
same,"Pigweed, Palmer plant response rating (0-100)",[18]; [30],0
same,Corn plant response rating,"corn (Zea mays) [19]; 16 g ai/ha, 0 to 100 scale",0
same,Corn plant response rating (0-100),corn (Zea mays) [19]; [30],0
same,Soybean plant response rating,"soybean (Glycine max) [20]; 16 g ai/ha, 0 to 100 scale",0
same,Soybean plant response rating (0-100),soybean (Glycine max) [20]; [30],10
same,Kochia plant response rating,"kochia (Bassia scoparia) [21]; 16 g ai/ha, 0 to 100 scale",0
same,Kochia plant response rating (0-100),kochia (Bassia scoparia) [21]; [30],0
same,"Foxtail, Green plant response rating","[22]; 16 g ai/ha, 0 to 100 scale",0
same,"Foxtail, Green plant response rating (0-100)",[22]; [30],0
same,Barnyardgrass plant response rating,"[23]; 16 g ai/ha, 0 to 100 scale",0
same,Barnyardgrass plant response rating (0-100),[23]; [30],20
same,Wheat plant response rating,"[24]; 16 g ai/ha, 0 to 100 scale",0
same,Wheat plant response rating (0-100),[24]; [30],0
same,"Oat, Wild plant response rating","[25]; 16 g ai/ha, 0 to 100 scale",0
same,"Oat, Wild plant response rating (0-100)",[25]; [30],0
same,"Ryegrass, Italian plant response rating","[26]; 16 g ai/ha, 0 to 100 scale",0
same,"Ryegrass, Italian plant response rating (0-100)",[26]; [30],0
same,Ragweed plant response rating,"[27]; 16 g ai/ha, 0 to 100 scale",0
same,Ragweed plant response rating (0-100),[27]; [30],0
